Activity calls are given as the source filed them. The rule behind the calls is not given here.
Assays:
Mus musculus [1] = assay: Antidepressant activity in Swiss albino mouse assessed as decrease in immobility duration at 0.5 mg/kg, ip administered 30 mins prior to test measured after 30 mins by tail suspension test (reference value: 79.9%); assay type: functional; set-up: scale not given: the % may be the effect or the level left; conditions: route intraperitoneal
[2] = Solubility of the compound; assay type: physicochemical
Mus musculus [3] = assay: Antidepressant activity in Swiss albino mouse assessed as decrease in immobility time at 0.5 mg/kg, ip measured for 6 mins by forced swim test; assay type: functional, organism-based; set-up: dose 0.5 mg/kg
Mus musculus [4] = assay: Neurotoxicity in Swiss albino mouse assessed as deffect in motor coordination at 1 mg/kg, ip measured for 2 mins by rotarod test; assay type: toxicity, organism-based; set-up: dose 1 mg/kg, route intraperitoneal; conditions: in vivo
Mus musculus [5] = assay: Antidepressant activity in Swiss albino mouse assessed as decrease in immobility time at 30 mg/kg, ip measured for 6 mins by forced swim test; assay type: functional, organism-based; set-up: dose 30 mg/kg
Mus musculus [6] = assay: Antidepressant activity in Swiss albino mouse assessed as decrease in immobility duration at 30 mg/kg, ip administered 30 mins prior to test measured after 30 mins by tail suspension test (reference value: 79.9%); assay type: functional; set-up: scale not given: the % may be the effect or the level left; conditions: route intraperitoneal
Mus musculus [7] = assay: Antidepressant activity in Swiss albino mouse assessed as decrease in immobility time at 0.25 mg/kg, ip measured for 6 mins by forced swim test; assay type: functional, organism-based; set-up: dose 0.25 mg/kg

With `CCC(C)c1cc(C=O)cc2cc(-c3cccc(OC)c3)c(=O)oc12` (stereo not given) as the compound, how does the Activity (Mus musculus [1]) read?
Its Activity is 70.6%.

With `COc1ccccc1-c1cc2cc(C=O)cc(C)c2oc1=O` as the compound, how does the solubility [2] read?
Its solubility is “Insoluble”.

What does the source list for `COc1ccc(-c2cc3cc(C=O)cc(C)c3oc2=O)c(OC)c1OC`?
Activity (Mus musculus [3]): Active; Activity (Mus musculus [4]): Non-toxic; Activity (Mus musculus [1]): 47.3%

Which results are given for `CN(C)CCCN1c2ccccc2CCc2ccccc21` [IMIPRAMINE]?
Activity (Mus musculus [5]): Active; Activity (Mus musculus [6]): 20.6%

For `CCC(C)c1cc(C=O)cc2cc(-c3ccc(OC)c(OC)c3)c(=O)oc12` (stereo not given), which Activity (Mus musculus [1]) is on record?
Its Activity is 72.5%.

Which Activity (Mus musculus [1]) does the source give for `COc1ccc(-c2cc3cc(C)c4ccccc4c3oc2=O)c(OC)c1OC` here?
Its Activity is 63.6%.

For `COc1ccc(-c2cc3cc(C=O)cc(C)c3oc2=O)cc1`, which Activity (Mus musculus [1]) is on record?
Its Activity is 78.1%.

Which Activity (Mus musculus [3]) does the source give for `COc1ccc(-c2cc3cc(C=O)cc(C)c3oc2=O)cc1OC` here?
Its Activity is “Active”.

What about the Activity (Mus musculus [4]) of the same compound?
Its Activity is “Non-toxic”.

What about the Activity (Mus musculus [7]) of the same compound?
The Activity was “Active”.

What about the Activity (Mus musculus [1]) of the same compound?
The Activity was 39.1%.

What does the source list for `COc1ccc(-c2cc3cc(C)c4ccccc4c3oc2=O)cc1`?
Activity (Mus musculus [3]): Active; Activity (Mus musculus [4]): Non-toxic; Activity (Mus musculus [7]): Active; Activity (Mus musculus [1]): 49.9%

For `CCC(C)c1cc(C=O)cc2cc(-c3ccc(OC)cc3)c(=O)oc12` (stereo not given), which Activity (Mus musculus [1]) is on record?
The Activity was 71.4%.

For `COc1ccc(-c2cc3cc(C)c4ccccc4c3oc2=O)cc1OC`, which solubility [2] is on record?
The solubility was “Insoluble”.
